Results: ChEMBL document CHEMBL4402594, “Interrogating the Lactate Dehydrogenase Tetramerization Site Using (Stapled) Peptides” (J Med Chem, 2020)
Where a name gives a salt, the structure may show the parent alone. Active and inactive are the calls of the source. No cut-off for these calls is given here. Peptide text beside a SMILES is read from it.

How the values were obtained:
[1] = biological target: T1, L-lactate dehydrogenase B chain (Homo sapiens, UniProt P07195); experiment: Binding affinity to full length human N-terminal His6-tagged LDH-H expressed in Escherichia coli Rosetta (DE3) assessed as effect on tetramerization site at 100 to 200 uM in sodium phosphate buffer at pH 7.6 by WaterLOGSY NMR analysis
Target sequence in this assay (P07195 2-334 limits assumed): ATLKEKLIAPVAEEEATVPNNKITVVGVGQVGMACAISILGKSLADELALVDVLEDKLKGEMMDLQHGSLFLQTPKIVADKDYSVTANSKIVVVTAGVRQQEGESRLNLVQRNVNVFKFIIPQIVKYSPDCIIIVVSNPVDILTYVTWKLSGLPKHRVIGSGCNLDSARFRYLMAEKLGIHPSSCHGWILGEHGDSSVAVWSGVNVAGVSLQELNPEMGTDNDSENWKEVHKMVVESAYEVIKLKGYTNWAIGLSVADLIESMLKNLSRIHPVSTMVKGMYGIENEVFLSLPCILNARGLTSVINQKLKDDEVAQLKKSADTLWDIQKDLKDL

[2] = tested on: L-lactate dehydrogenase B chain (Homo sapiens), P07195 [L4A]; experiment: Binding affinity to full length human N-terminal His6-tagged LDH-H L3A mutant expressed in Escherichia coli Rosetta (DE3) assessed as melting temperature heated up to 95 degree C for 3 mins by nano differential scanning fluorimetry analysis
Chain of L-lactate dehydrogenase B chain (Homo sapiens), P07195 [L4A] (P07195 whole entry L4A): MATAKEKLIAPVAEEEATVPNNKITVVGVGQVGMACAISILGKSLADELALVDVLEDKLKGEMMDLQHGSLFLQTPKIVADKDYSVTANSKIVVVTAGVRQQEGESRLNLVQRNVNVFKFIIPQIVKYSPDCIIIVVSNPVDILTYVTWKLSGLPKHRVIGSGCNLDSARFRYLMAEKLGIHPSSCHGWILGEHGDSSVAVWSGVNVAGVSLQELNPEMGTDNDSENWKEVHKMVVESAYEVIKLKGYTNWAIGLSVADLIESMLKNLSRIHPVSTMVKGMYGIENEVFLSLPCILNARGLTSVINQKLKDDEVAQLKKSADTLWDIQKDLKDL

[3] = biological target: L-lactate dehydrogenase B chain (Homo sapiens, UniProt P07195, T3A); experiment: Binding affinity full length human N-terminal His6-tagged LDH-H T2A mutant expressed in Escherichia coli Rosetta (DE3) assessed as tetrameric disruption by nano differential scanning fluorimetry analysis
Chain of L-lactate dehydrogenase B chain (Homo sapiens, UniProt P07195, T3A) (P07195 2-334 T3A limits assumed): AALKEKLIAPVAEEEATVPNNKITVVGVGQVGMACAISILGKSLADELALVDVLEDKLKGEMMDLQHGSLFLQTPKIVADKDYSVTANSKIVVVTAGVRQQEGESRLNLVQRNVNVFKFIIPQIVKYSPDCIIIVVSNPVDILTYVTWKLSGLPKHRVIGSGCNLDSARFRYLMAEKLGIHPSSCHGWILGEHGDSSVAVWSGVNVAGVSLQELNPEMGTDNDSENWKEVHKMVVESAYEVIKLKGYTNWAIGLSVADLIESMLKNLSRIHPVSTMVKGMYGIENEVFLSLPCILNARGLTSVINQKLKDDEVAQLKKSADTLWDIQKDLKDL

[4] = biological target: T1, L-lactate dehydrogenase B chain; experiment: Binding affinity to truncated human N-terminal His6-tagged LDH-H expressed in Escherichia coli Rosetta (DE3) assessed as melting temperature heated up to 95 degree C for 3 mins by nano differential scanning fluorimetry analysis
Target sequence in this assay (P07195 2-334 limits assumed): as the sequence (P07195 2-334 limits assumed) above

[5] = biological target: T1, L-lactate dehydrogenase B chain; experiment: Binding affinity to full length human N-terminal His6-tagged LDH-H expressed in Escherichia coli Rosetta (DE3) assessed as melting temperature heated up to 95 degree C for 3 mins by nano differential scanning fluorimetry analysis
Target sequence in this assay (P07195 2-334 limits assumed): as above

[6] = biological target: L-lactate dehydrogenase B chain (Homo sapiens, UniProt P07195, L4A); experiment: Binding affinity full length human N-terminal His6-tagged LDH-H L3A mutant expressed in Escherichia coli Rosetta (DE3) assessed as tetrameric disruption by nano differential scanning fluorimetry analysis
Chain of L-lactate dehydrogenase B chain (Homo sapiens, UniProt P07195, L4A) (P07195 2-334 L4A limits assumed): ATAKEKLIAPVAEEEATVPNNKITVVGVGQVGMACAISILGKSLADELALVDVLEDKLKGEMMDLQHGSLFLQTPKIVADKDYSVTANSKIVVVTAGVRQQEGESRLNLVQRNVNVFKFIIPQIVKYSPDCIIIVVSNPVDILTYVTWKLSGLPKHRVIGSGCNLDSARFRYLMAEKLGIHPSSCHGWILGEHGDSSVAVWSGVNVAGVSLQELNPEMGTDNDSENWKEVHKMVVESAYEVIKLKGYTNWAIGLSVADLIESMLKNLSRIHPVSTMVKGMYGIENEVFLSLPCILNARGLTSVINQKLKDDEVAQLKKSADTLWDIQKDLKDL

[7] = tested on: L-lactate dehydrogenase B chain (Homo sapiens), P07195 [K5A]; experiment: Binding affinity to full length human N-terminal His6-tagged LDH-H K4A mutant expressed in Escherichia coli Rosetta (DE3) assessed as melting temperature heated up to 95 degree C for 3 mins by nano differential scanning fluorimetry analysis
[8] = tested on: L-lactate dehydrogenase B chain (Homo sapiens), P07195 [I9A]; experiment: Binding affinity to full length human N-terminal His6-tagged LDH-H I8A mutant expressed in Escherichia coli Rosetta (DE3) assessed as melting temperature heated up to 95 degree C for 3 mins by nano differential scanning fluorimetry analysis
Chain of L-lactate dehydrogenase B chain (Homo sapiens), P07195 [I9A] (P07195 whole entry I9A): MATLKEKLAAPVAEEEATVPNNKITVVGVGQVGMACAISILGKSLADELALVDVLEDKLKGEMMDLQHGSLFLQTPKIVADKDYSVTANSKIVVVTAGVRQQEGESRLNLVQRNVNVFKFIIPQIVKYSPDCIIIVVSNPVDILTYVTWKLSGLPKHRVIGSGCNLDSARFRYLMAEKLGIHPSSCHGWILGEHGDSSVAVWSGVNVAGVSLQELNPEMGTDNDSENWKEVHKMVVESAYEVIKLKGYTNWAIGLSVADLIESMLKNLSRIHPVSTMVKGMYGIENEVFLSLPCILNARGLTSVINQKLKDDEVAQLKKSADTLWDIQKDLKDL

[9] = tested on: L-lactate dehydrogenase B chain (Homo sapiens), P07195 [K7A]; experiment: Binding affinity to full length human N-terminal His6-tagged LDH-H K6A mutant expressed in Escherichia coli Rosetta (DE3) assessed as melting temperature heated up to 95 degree C for 3 mins by nano differential scanning fluorimetry analysis
Chain of L-lactate dehydrogenase B chain (Homo sapiens), P07195 [K7A] (P07195 whole entry K7A): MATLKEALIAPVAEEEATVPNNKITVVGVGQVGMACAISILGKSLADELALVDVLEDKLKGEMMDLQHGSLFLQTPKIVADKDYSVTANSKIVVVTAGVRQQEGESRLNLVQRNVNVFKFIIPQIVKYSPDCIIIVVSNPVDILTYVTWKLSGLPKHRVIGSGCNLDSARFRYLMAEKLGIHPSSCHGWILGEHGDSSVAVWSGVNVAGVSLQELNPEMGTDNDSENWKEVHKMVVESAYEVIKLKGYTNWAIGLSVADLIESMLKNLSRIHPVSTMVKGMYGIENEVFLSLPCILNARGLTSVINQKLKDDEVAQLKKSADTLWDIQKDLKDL

[10] = tested on: L-lactate dehydrogenase B chain (Homo sapiens), P07195 [I9A]; experiment: Binding affinity to full length human N-terminal His6-tagged LDH-H I8A mutant expressed in Escherichia coli Rosetta (DE3) assessed as changed in melting temperature heated up to 95 degree C for 3 mins by nano differential scanning fluorimetry analysis
[11] = tested on: L-lactate dehydrogenase B chain (Homo sapiens), P07195 [E6A]; experiment: Binding affinity to full length human N-terminal His6-tagged LDH-H E5A mutant expressed in Escherichia coli Rosetta (DE3) assessed as melting temperature heated up to 95 degree C for 3 mins by nano differential scanning fluorimetry analysis
Chain of L-lactate dehydrogenase B chain (Homo sapiens), P07195 [E6A] (P07195 whole entry E6A): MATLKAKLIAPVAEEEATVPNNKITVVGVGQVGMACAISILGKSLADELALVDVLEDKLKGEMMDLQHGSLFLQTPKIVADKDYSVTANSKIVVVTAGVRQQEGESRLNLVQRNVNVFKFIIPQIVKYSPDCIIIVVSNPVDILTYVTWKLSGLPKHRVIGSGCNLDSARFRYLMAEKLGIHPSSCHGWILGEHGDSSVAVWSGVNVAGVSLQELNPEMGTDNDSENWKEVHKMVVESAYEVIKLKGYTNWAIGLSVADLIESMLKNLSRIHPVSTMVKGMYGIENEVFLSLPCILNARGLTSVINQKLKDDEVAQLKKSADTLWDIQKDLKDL

[12] = biological target: L-lactate dehydrogenase B chain (Homo sapiens, UniProt P07195, K5A); experiment: Binding affinity full length human N-terminal His6-tagged LDH-H K4A mutant expressed in Escherichia coli Rosetta (DE3) assessed as tetrameric disruption by nano differential scanning fluorimetry analysis
Chain of L-lactate dehydrogenase B chain (Homo sapiens, UniProt P07195, K5A) (P07195 2-334 K5A limits assumed): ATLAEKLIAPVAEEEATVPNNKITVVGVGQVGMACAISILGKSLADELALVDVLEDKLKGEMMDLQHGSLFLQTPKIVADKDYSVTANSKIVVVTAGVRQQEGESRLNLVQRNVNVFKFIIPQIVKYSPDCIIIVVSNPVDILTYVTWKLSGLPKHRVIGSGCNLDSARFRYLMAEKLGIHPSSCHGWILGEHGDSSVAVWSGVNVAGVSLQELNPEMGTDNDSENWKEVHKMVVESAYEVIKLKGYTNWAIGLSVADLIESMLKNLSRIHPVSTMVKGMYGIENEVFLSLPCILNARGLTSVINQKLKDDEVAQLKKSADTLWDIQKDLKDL

[13] = tested on: L-lactate dehydrogenase B chain (Homo sapiens), P07195 [L4A]; experiment: Binding affinity to full length human N-terminal His6-tagged LDH-H L3A mutant expressed in Escherichia coli Rosetta (DE3) assessed as change in melting temperature heated up to 95 degree C for 3 mins by nano differential scanning fluorimetry analysis
[14] = tested on: L-lactate dehydrogenase B chain (Homo sapiens), P07195 [T3A]; experiment: Binding affinity to full length human N-terminal His6-tagged LDH-H T2A mutant expressed in Escherichia coli Rosetta (DE3) assessed as melting temperature heated up to 95 degree C for 3 mins by nano differential scanning fluorimetry analysis
Chain of L-lactate dehydrogenase B chain (Homo sapiens), P07195 [T3A] (P07195 whole entry T3A): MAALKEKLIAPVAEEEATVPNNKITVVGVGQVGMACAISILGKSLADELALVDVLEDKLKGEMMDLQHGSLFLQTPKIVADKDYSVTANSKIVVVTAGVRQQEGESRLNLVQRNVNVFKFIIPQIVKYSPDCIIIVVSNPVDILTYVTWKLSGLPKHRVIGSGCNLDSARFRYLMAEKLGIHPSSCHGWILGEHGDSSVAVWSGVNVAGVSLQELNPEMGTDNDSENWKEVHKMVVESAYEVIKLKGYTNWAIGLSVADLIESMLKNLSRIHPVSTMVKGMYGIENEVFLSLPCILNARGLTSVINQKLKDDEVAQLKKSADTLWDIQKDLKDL

[15] = biological target: L-lactate dehydrogenase B chain (Homo sapiens, UniProt P07195, I9A); experiment: Binding affinity full length human N-terminal His6-tagged LDH-H I8A mutant expressed in Escherichia coli Rosetta (DE3) assessed as tetrameric disruption by nano differential scanning fluorimetry analysis
Chain of L-lactate dehydrogenase B chain (Homo sapiens, UniProt P07195, I9A) (P07195 2-334 I9A limits assumed): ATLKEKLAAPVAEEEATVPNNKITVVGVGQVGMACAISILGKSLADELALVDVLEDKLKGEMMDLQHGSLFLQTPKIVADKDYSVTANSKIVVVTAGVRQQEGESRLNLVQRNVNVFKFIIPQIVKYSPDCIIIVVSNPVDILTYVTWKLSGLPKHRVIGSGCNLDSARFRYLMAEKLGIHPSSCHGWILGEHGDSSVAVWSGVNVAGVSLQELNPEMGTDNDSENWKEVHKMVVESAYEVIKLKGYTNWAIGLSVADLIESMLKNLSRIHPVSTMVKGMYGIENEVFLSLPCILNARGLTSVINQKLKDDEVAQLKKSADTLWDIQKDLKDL

[16] = biological target: L-lactate dehydrogenase B chain (Homo sapiens, UniProt P07195, K7A); experiment: Binding affinity full length human N-terminal His6-tagged LDH-H K6A mutant expressed in Escherichia coli Rosetta (DE3) assessed as tetrameric disruption by nano differential scanning fluorimetry analysis
Chain of L-lactate dehydrogenase B chain (Homo sapiens, UniProt P07195, K7A) (P07195 2-334 K7A limits assumed): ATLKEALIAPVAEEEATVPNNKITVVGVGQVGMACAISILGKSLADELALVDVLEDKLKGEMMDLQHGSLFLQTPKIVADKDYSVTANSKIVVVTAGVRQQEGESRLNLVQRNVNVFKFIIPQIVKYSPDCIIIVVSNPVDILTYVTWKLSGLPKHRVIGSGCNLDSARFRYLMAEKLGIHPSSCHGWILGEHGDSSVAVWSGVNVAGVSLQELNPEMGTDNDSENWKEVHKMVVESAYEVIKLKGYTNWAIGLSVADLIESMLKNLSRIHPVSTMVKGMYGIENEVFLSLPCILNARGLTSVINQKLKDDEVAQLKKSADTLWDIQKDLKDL

[17] = tested on: L-lactate dehydrogenase B chain (Homo sapiens), P07195 [L8A]; experiment: Binding affinity to full length human N-terminal His6-tagged LDH-H L7A mutant expressed in Escherichia coli Rosetta (DE3) assessed as melting temperature heated up to 95 degree C for 3 mins by nano differential scanning fluorimetry analysis
Chain of L-lactate dehydrogenase B chain (Homo sapiens), P07195 [L8A] (P07195 whole entry L8A): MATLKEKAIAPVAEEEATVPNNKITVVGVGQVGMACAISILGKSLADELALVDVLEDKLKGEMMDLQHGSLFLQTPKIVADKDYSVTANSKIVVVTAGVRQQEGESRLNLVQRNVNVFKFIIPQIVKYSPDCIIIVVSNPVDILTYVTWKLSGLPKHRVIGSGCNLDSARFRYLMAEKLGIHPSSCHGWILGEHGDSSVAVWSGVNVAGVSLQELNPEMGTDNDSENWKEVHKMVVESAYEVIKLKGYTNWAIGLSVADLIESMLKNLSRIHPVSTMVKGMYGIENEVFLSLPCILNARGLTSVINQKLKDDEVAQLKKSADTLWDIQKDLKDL

[18] = Conformational stability in sodium phosphate buffer assessed as helical structural propensity at 200 uM and pH 7.6 at 25 degree C by circular dichroism method; assay type: physicochemical; details: pH 7.6, 200 µM
[19] = biological target: T1, L-lactate dehydrogenase B chain; experiment: Binding affinity to truncated human N-terminal His6-tagged LDH-H expressed in Escherichia coli Rosetta (DE3) after 5 mins by Red-NHS fluorescence dye-based microscale thermophoresis analysis
[20] = biological target: T1, L-lactate dehydrogenase B chain; experiment: Binding affinity to truncated human N-terminal His6-tagged LDH-H expressed in Escherichia coli Rosetta (DE3) in sodium phosphate buffer at pH 7.6 by WaterLOGSY NMR analysis
Target sequence in this assay (P07195 2-334 limits assumed): as the sequence (P07195 2-334 limits assumed) above

[21] = biological target: T1, L-lactate dehydrogenase B chain; experiment: Binding affinity to full length human N-terminal His6-tagged LDH-H expressed in Escherichia coli Rosetta (DE3) assessed as saturation transfer at lipophilic residues at 800 uM in sodium phosphate buffer at pH 7.6 by WaterLOGSY NMR analysis
Target sequence in this assay (P07195 2-334 limits assumed): as above

[22] = biological target: L-lactate dehydrogenase A chain (Oryctolagus cuniculus) (UniProt P13491); experiment: Binding affinity to rabbit LDH-5 assessed as acid-induced dimerization by measuring fluorescence recovery at 50 uM pH 7.6 by nano differential scanning fluorimetry analysis
[23] = Conformational stability in water assessed as helical structural propensity by 2D NMR-ROESY analysis; assay type: physicochemical; details: buffer
[24] = biological target: T1, L-lactate dehydrogenase B chain; experiment: Binding affinity to recombinant full length human His-tagged LDH-1 (1 to 322 residues) expressed in Escherichia coli by WaterLOGSY NMR analysis
Target sequence in this assay (P07195 whole entry): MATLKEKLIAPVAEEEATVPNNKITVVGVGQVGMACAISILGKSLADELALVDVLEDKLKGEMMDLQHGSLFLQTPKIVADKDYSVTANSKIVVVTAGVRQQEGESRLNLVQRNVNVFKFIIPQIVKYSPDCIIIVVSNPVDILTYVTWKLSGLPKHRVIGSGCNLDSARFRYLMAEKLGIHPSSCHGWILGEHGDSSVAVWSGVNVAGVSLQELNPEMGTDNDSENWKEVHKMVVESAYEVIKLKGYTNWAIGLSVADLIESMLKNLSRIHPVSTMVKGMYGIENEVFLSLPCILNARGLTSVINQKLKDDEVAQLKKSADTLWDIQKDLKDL

[25] = Conformational stability in water assessed as helical structural propensity by circular dichroism method; assay type: physicochemical; details: buffer
[26] = biological target: T1, L-lactate dehydrogenase B chain; experiment: Binding affinity to full length human N-terminal His6-tagged LDH-H expressed in Escherichia coli Rosetta (DE3) in sodium phosphate buffer at pH 7.6 by WaterLOGSY NMR analysis
Target sequence in this assay (P07195 whole entry): as above

[27] = Conformational stability in sodium phosphate buffer assessed as increase in alpha-helicity with theta 222 band formation at 100 uM by circular dichroism method; assay type: physicochemical
[28] = biological target: T2, L-lactate dehydrogenase A chain (Homo sapiens, UniProt P00338); experiment: Binding affinity to human N-terminal His6-tagged LDH-5 expressed in Escherichia coli Rosetta (DE3) assessed as thermal denaturation up to 500 uM by nano differential scanning fluorimetry analysis
[29] = Conformational stability in sodium phosphate buffer assessed as increase in alpha-helicity with strong theta 206 band formation at 100 uM by circular dichroism method; assay type: physicochemical
[30] = biological target: T2, L-lactate dehydrogenase A chain; experiment: Competitive binding affinity to human N-terminal His6-tagged LDH-5 expressed in Escherichia coli Rosetta (DE3) assessed as protein-compound interaction at N-terminal domain after 5 mins by Red-NHS fluorescence dye-based microscale thermophoresis analysis
[31] = biological target: T1, L-lactate dehydrogenase B chain; experiment: Competitive binding affinity to recombinant full length human His-tagged LDH-1 (1 to 322 residues) expressed in Escherichia coli assessed as protein-compound interaction at N-terminal domain after 5 mins by Red-NHS fluorescence dye based microscale thermophoresis analysis
Target sequence in this assay (P07195 2-334 limits assumed): as the sequence (P07195 2-334 limits assumed) above

[32] = biological target: T1, L-lactate dehydrogenase B chain; experiment: Binding affinity to recombinant full length human His-tagged LDH-1 (1 to 322 residues) expressed in Escherichia coli assessed as thermal denaturation up to 500 uM by nano differential scanning fluorimetry analysis
[33] = biological target: L-lactate dehydrogenase A chain (Oryctolagus cuniculus) (UniProt P13491); experiment: Binding affinity to rabbit LDH-5 assessed as acid-induced dimerization by measuring fluorescence recovery at pH 7.6 by nano differential scanning fluorimetry analysis
[34] = biological target: L-lactate dehydrogenase A chain (Oryctolagus cuniculus) (UniProt P13491); experiment: Binding affinity to rabbit LDH-M assessed as acid-induced dimerization by measuring fluorescence recovery at pH 5 by nano differential scanning fluorimetry analysis

H-ATAKEKLI-NH2
Activity [1]: inactive

N=C(N)N [GUANIDINE HYDROCHLORIDE]
Tm [2]: 61.2 °C | EC50 [3]: 978 mM | Tm [4]: 57.5 °C | Tm [5]: 74.5 °C | EC50 [6]: 624 mM | Tm [7]: 65.8 °C | Tm [8]: 49.9 °C | Tm [9]: 67.9 °C | ΔTm [10]: 24.6 °C | Tm [11]: 73.3 °C | EC50 [12]: 991 mM | ΔTm [13]: 13.3 °C | Tm [14]: 72.4 °C | EC50 [15]: 233 mM | EC50 [16]: 954 mM | Tm [17]: 55.6 °C

H-GTLKEKLI-NH2
Activity [1]: inactive

Ac-TLKEKLI-NH2
Stability [18]: Unstable | Activity [1]: inactive

CC[C@H](C)C(NC(=O)[C@H](CC(C)C)NC(=O)[C@H](CCCCN)NC(=O)[C@H](CCC(=O)O)NC(=O)[C@@H]1CSCc2cccc(c2)CSC[C@H](N)C(=O)N[C@@H](C)C(=O)N[C@@H]([C@@H](C)O)C(=O)N[C@@H](CC(C)C)C(=O)N1)C(N)=O (stereo partly drawn) (HELM PEPTIDE1{C.A.T.L.C.E.K.L.[CC[C@H](C)C(N[*:1])C(=O)[*:2]].[am]}|CHEM1{[c1cc(C[*:1])cc(C[*:2])c1]}$PEPTIDE1,CHEM1,1:R3-1:R1|PEPTIDE1,CHEM1,5:R3-1:R2$$$V2.0)
Kd [19]: > 1 mM

CC[C@H](C)[C@H](NC(=O)[C@H](CC(C)C)NC(=O)C(C)(C)NC(=O)[C@H](CCC(=O)O)NC(=O)[C@H](CCCCN)NC(=O)[C@H](CC(C)C)NC(=O)[C@@H](NC(=O)[C@H](C)N)[C@@H](C)O)C(N)=O (HELM PEPTIDE1{A.T.L.K.E.[Aib].L.I.[am]}$$$$V2.0)
Activity [19]: inactive | Activity [20]: Active

H-ATLKEKAI-NH2
Activity [1]: inactive

CC[C@H](C)[C@H](NC(=O)[C@H](CC(C)C)NC(=O)[C@H](CCCCN)NC(=O)[C@H](CCC(=O)O)NC(=O)C(C)(C)NC(=O)[C@H](CC(C)C)NC(=O)[C@@H](NC(=O)[C@H](C)N)[C@@H](C)O)C(N)=O (HELM PEPTIDE1{A.T.L.[Aib].E.K.L.I.[am]}$$$$V2.0)
Activity [19]: inactive | Activity [20]: Active

H-ATGKEKLI-NH2
Activity [1]: inactive

H-ATLKAKLI-NH2
Activity [1]: inactive

CC[C@H](C)[C@@H]1NC(=O)[C@H](CC(C)C)NC(=O)[C@@H](NC(=O)[C@H](CCC(=O)O)NC(=O)[C@H](CCCCN)NC(=O)[C@H](CC(C)C)NC(=O)[C@@H](NC(=O)[C@H](C)N)[C@@H](C)O)CSCc2cccc(c2)CSC[C@@H](C(N)=O)NC(=O)[C@H](C)NC1=O (HELM PEPTIDE1{A.T.L.K.E.C.L.I.A.C.[am]}|CHEM1{[c1cc(C[*:1])cc(C[*:2])c1]}$PEPTIDE1,CHEM1,6:R3-1:R1|PEPTIDE1,CHEM1,10:R3-1:R2$$$V2.0)
Kd [19]: > 1 mM

H-ATLAEKLI-NH2
Activity [1]: inactive

H-ATLKEKLI-NH2
Activity [21]: Active | Activity [22]: Active | Stability [23]: Unstable | Activity [24]: Not Active | Stability [25]: Unstable | Kd [26]: 1.02 mM | Stability [27]: Stable

H-ATLKEKLG-NH2
Activity [1]: inactive

H-ATLKEKL-NH2
Stability [18]: Unstable | Activity [1]: inactive

CC[C@H](C)[C@@H]1NC(=O)[C@H](CC(C)C)NC(=O)[C@@H](NC(=O)[C@H](CCC(=O)O)NC(=O)[C@H](CCCCN)NC(=O)[C@H](CC(C)C)NC(=O)[C@@H](NC(=O)[C@H](C)N)[C@@H](C)O)CCCCNC1=O (HELM PEPTIDE1{A.T.L.K.E.K.L.I}$PEPTIDE1,PEPTIDE1,6:R3-8:R2$$$V2.0)
Kd [19]: > 1 mM

H-ATLKEKLIAPVAE-NH2
Kd [26]: 1.05 mM

H-ATLKEALI-NH2
Activity [1]: inactive

H-ATLKEKLA-NH2
Activity [1]: inactive

H-ATLKDQLI-OH
Kd [26]: 1.49 mM

CC[C@H](C)[C@H](NC(=O)[C@H](CC(C)C)NC(=O)[C@H](CCCCN)NC(=O)[C@@H]1CSCc2cccc(c2)CSC[C@H](N)C(=O)N[C@@H]([C@@H](C)O)C(=O)N[C@@H](CC(C)C)C(=O)N[C@@H](CCCCN)C(=O)N1)C(N)=O (HELM PEPTIDE1{C.T.L.K.C.K.L.I.[am]}|CHEM1{[c1cc(C[*:1])cc(C[*:2])c1]}$PEPTIDE1,CHEM1,1:R3-1:R1|PEPTIDE1,CHEM1,5:R3-1:R2$$$V2.0)
Activity [28]: inactive | Stability [29]: Stable | Activity [30]: inactive | Activity [31]: inactive | Activity [32]: inactive | Activity [33]: Active | Activity [34]: inactive

H-AALKEKLI-NH2
Activity [1]: inactive
